The term IC50 denotes the midpoint of a concentration-inhibition curve.

In brackets after ≈: the same amount, converted by molar mass.

Among the data in ChEMBL document CHEMBL5226288, “A perspective on medicinal chemistry approaches towards adenomatous polyposis coli and Wnt signal based colorectal cancer inhibitors” (Eur J Med Chem, 2021) are IC50 values, retold here.

Assay [1] relates to DLD-1. Put plainly: Antiproliferative activity against human DLD-1 cells assessed as reduction in cell proliferation. It is filed as functional, cell-based.
Assay [2] concerns SW480. Put plainly: Antiproliferative activity against human SW480 cells assessed as reduction in cell proliferation. It is filed as functional, cell-based.
The test system of assay [3] is DLD-1. The assay is described as follows: Anticancer activity against human DLD1 cells expressing APC mutant assessed as reduction in cell viability by dual-glo luciferase assay. It is filed as functional, cell-based.
Assay [4] can be described thus: Inhibition of APC/ASEF (unknown origin) protein protein interaction incubated for 2 hrs by fluorescence polarization analysis. Further details: species or system Homo sapiens.
For assay [5], the system named is HCT-116. Put plainly: Antiproliferative activity against human HCT-116 cells assessed as reduction in cell viability incubated for 48 hrs by MTT assay. The assay is classed as functional, cell-based.
The test system of assay [6] is HCT-116. Put plainly: Anticancer activity against human HCT-116 cells assessed as reduction in cell growth incubated for 72 hrs by MTT assay. It is filed as functional, cell-based. Conditions: HCT-116, 72 h. Background: Formazan colour is commonly taken as a measure of viable cells.
In assay [7] the test system is DLD-1. Put plainly: Anticancer activity against human DLD-1 cells assessed as reduction in cell growth incubated for 72 hrs by MTT assay. The assay is classed as functional, cell-based. Conditions: DLD-1, 72 h.
The test system of assay [8] is SW480. Put plainly: Anticancer activity against human SW480 cells assessed as reduction in cell growth incubated for 72 hrs by MTT assay. The assay is classed as functional, cell-based. Particulars: SW480, 72 h.
The target in assay [9] is T1, Poly [ADP-ribose] polymerase tankyrase-2 (Homo sapiens, UniProt Q9H2K2).
T1 sequence (Q9H2K2 whole entry): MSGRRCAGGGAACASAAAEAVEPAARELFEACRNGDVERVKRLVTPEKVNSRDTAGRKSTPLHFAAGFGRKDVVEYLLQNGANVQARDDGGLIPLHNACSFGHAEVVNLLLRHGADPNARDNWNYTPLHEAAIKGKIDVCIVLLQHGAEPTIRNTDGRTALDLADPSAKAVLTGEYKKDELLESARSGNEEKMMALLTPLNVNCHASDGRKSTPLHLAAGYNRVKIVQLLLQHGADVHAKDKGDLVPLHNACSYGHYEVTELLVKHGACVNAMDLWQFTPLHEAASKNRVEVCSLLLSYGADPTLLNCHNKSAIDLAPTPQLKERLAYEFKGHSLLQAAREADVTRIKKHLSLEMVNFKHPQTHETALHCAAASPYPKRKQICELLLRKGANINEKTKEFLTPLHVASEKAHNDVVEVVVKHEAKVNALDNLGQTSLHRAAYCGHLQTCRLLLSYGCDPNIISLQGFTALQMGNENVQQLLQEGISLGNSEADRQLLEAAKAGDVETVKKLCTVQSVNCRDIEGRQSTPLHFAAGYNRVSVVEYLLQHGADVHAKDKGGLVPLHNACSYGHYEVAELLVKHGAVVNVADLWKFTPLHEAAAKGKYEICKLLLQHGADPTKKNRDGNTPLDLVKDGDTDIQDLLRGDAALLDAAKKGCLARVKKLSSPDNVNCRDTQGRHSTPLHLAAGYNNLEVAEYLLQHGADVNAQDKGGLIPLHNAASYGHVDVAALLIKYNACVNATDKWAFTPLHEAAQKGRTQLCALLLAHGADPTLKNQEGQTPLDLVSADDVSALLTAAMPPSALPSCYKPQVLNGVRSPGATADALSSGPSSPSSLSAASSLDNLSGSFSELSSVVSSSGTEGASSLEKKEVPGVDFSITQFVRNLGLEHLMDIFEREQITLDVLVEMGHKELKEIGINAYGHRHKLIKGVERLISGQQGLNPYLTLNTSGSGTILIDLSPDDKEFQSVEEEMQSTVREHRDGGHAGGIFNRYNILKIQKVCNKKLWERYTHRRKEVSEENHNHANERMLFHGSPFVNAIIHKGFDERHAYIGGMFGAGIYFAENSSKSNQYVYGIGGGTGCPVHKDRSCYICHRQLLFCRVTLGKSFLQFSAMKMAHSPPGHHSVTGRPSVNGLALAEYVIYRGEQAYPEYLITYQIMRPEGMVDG
Put plainly: Inhibition of TNKS2 (unknown origin).

Assay [10] has as its target T2, Poly [ADP-ribose] polymerase tankyrase-1 (Homo sapiens, UniProt O95271).
T2 sequence (O95271 whole entry): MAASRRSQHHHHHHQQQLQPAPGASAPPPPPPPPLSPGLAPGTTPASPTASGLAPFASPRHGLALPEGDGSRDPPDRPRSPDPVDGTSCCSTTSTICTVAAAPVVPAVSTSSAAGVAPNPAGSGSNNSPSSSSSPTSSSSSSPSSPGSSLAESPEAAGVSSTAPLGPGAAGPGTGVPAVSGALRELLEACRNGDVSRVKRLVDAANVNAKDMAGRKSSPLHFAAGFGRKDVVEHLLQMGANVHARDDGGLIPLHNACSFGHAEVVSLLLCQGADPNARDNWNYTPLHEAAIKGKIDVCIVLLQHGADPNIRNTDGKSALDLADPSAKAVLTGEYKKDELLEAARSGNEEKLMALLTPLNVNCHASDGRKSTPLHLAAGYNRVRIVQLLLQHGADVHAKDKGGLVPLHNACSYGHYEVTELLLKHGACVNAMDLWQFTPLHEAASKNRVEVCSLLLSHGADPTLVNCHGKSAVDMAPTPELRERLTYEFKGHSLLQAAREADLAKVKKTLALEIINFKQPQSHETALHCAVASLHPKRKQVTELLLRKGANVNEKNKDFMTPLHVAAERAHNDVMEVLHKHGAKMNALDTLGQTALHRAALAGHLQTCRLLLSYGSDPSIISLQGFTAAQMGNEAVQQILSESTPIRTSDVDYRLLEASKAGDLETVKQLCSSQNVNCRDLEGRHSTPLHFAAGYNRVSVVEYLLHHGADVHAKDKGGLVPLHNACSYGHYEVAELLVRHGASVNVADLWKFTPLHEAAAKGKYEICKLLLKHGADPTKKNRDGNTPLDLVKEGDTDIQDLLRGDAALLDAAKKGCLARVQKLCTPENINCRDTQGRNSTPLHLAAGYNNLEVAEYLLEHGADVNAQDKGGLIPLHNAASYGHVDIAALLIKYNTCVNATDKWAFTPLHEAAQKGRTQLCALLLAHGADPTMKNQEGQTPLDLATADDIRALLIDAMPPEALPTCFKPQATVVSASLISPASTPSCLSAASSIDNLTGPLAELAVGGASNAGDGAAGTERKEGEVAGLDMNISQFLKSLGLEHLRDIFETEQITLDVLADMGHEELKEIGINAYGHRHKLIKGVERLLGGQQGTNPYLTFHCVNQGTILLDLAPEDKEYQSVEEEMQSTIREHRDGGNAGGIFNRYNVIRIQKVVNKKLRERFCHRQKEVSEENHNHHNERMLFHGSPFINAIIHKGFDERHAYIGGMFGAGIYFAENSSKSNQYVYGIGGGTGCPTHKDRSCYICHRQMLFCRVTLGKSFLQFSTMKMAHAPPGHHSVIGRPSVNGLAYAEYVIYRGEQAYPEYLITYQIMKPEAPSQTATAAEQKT
The assay is described as follows: Inhibition of TNKS1 (unknown origin).

Assay [11] deals with SW480. Put plainly: Anticancer activity against human SW480 cells assessed as reduction in cell proliferation incubated for 72 hrs by. The assay is classed as functional, cell-based.
The test system of assay [12] is SW480. Put plainly: Antiproliferative activity against human SW480 cells assessed as reduction in cell viability incubated for 48 hrs by MTT assay. It is filed as functional, cell-based. Conditions: SW480, 48 h.
For assay [13], the system named is SW480. Put plainly: Anticancer activity against human SW480 cells assessed as reduction in cell viability incubated for 24 hrs by MTT assay. The assay is classed as functional, cell-based. Conditions: SW480, 24 h.
Assay [14] deals with HCT-116. The assay is described as follows: Anticancer activity against human HCT-116 cells assessed as reduction in cell viability incubated for 24 hrs by MTT assay. The assay is classed as functional, cell-based. Particulars: HCT-116, 24 h.
Assay [15] concerns SW480. The assay is described as follows: Anticancer activity against human SW480 cells assessed as decrease in cell growth incubated for 72 hrs by tryphan blue staining based cell counter analysis. Particulars: SW480, 72 h. The assay is classed as functional.
Assay [16] relates to HCT-116. Put plainly: Anticancer activity against human HCT-116 cells assessed as decrease in cell growth incubated for 72 hrs by tryphan blue staining based cell counter analysis. It is filed as functional. Particulars: HCT-116, 72 h.
For assay [17], the system named is DLD-1. Put plainly: Anticancer activity against human DLD-1 cells assessed as reduction in cell viability. The assay is classed as functional, cell-based.
Assay [18] has as its system SW480. Put plainly: Anticancer activity against human SW480 cells assessed as reduction in cell viability. It is filed as functional, cell-based.
Assay [19] concerns HCT-116. Put plainly: Antiproliferative activity against human HCT-116 cells assessed as reduction in cell viability. The assay is classed as functional, cell-based.
Assay [20] has as its system SW480. The assay is described as follows: Antiproliferative activity against human SW480 cells assessed as reduction in cell viability. The assay is classed as functional, cell-based.

As to `O=C(O)c1ccc(-n2nc(-c3ccccc3O)nc2-c2ccccc2O)cc1` [DEFERASIROX], the IC50 in the assay on DLD-1 [1] is 3.4 µM; with SW480 [2], 3.9 µM. Turning to `CCN(C(=O)C1CCN(S(=O)(=O)c2cc(Br)cc3c2N(C(C)=O)CC3)CC1)c1cccc(C)c1`, the IC50 in the assay with DLD-1 [3] came out at 0.9 µM.

On to `CC(=O)N(O)CCCCCNC(=O)CCC(=O)N(O)CCCCCNC(=O)CCC(=O)N(O)CCCCCN` [DEFEROXAMINE], for which the IC50 with DLD-1 [1] was found to be 2.9 µM; in the assay with SW480 [2] it was 3.8 µM.

With `COc1cccc(C2=NN(c3ccc(C(=O)Nc4cc(C(F)(F)F)cc(C(F)(F)F)c4)cc3)C(c3ccc4c(ccn4C)c3)C2)c1` (stereo not drawn), the IC50 in assay [4] amounted to 1.02 µM; with HCT-116 [5] (time 48 hrs), 1.37 µM. In the case of `O=C(/C=C/C=C/c1ccc2c(c1)OCO2)N1CCCCC1` [PIPERINE], the IC50 in the assay on HCT-116 [6], in the assay on DLD-1 [7] and in the assay with SW480 [8] was under 200 µM throughout.

Consider `Cc1ccccc1-n1c(/C=C/c2nnc(-c3ccc(C#N)cc3)o2)nnc1-c1ccc(S(C)(=O)=O)cn1`, for which the IC50 in [9] worked out at 0.025 µM; in [10], 0.046 µM. As to `CC(=O)O[C@@H]1C(=O)c2c(O)cc(O)cc2O[C@H]1c1ccccc1`, the concentration for half-maximal inhibition (IC50) with SW480 [11] turned out to be 45.6 µg/mL (≈ 145 µM). For the molecule `C=C1C(=O)[C@@]23[C@H](O)CC4C(C)(C)[C@@H](OC(C)=O)CC[C@@]4(C)[C@@H]2[C@@H]2O[C@@H]2[C@@H]1[C@H]3O` (stereo partly drawn), the 50% inhibitory concentration (IC50) in the assay with HCT-116 [5] (Homo sapiens, HCT-116, 48 h, read-out: IC50) came to 20 µM; with SW480 [12] it was 20 µM. Regarding `CC1=C(CO)C(=O)O[C@@H]([C@@H](C)[C@H]2CC[C@H]3[C@@H]4C[C@H]5O[C@]56[C@@H](O)C=CC(=O)[C@]6(C)[C@H]4CC[C@]23C)C1` [WITHAFERIN A], the IC50 came out at 4.9 µM in the assay on SW480 [13] and 3.7 µM with HCT-116 [14]. With `COc1cc(C2Oc3cc([C@H]4Oc5cc(O)cc(O)c5C(=O)[C@@H]4O)ccc3OC2CO)ccc1O` (stereo partly drawn) [SILIBININ], the 50% inhibitory concentration (IC50) with SW480 [15] and in the assay with HCT-116 [16] was 50 µM in each case. `S=C=NCCc1ccccc1` [PHENETHYLISOTHIOCYANATE]: the IC50 with DLD-1 [17] came to 54.6 µM; with SW480 [18], 35.6 µM. `CC(C)=CCc1c(O)ccc(C(=O)/C=C/c2ccc(O)cc2)c1O` [ISOBAVACHALCONE]: the half-inhibitory concentration (IC50) was determined as 75.5 µM with HCT-116 [19] and 44.1 µM with SW480 [20].
